Measured values published in patent publication US8871767B2, “2-arylimidazo[1,2-B]pyridazine, 2-phenylimidazo[1,2-A]pyridine, and 2-phenylimidazo[1,2-A]pyrazine derivatives” (Hengrui (USA) Ltd., priority 2010, dated 2014).
pIC50: −log10 of the molar value. Where two headings read alike, the source gives them in different places.

Assays:
[1] = system: Hedgehog pathway activation (GLi-luciferase reporter) in Shh Light II reporter cells; test: Hedgehog pathway activation on Shh Light II reporter cells measured by luciferase activity; type: cell-based
How it was run: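 Shh Light II reporter cells carrying a hedgehog-responsive GLi-luciferase reporter were stimulated either with 500 nM SAG, a direct Smoothened agonist, or with conditioned media containing human Sonic Hedgehog (hShh). Test compounds were evaluated for blocking this pathway activation, quantified by luciferase activity. Cell viability was monitored in parallel with the Celltiter-Blue® assay.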

[2] = system: Hedgehog pathway activation on 10T1/2/Smo#3 cells (C3H10T1/2 cells transfected with human Smoothened receptor); test: Hedgehog pathway activation on 10T1/2/Smo#3 cells measured by ALP activity; type: cell-based
How it was run: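 C3H10T1/2 cells stably expressing human Smoothened were activated with hShh-conditioned medium (10-20%) or 500 nM SAG, with test compounds present. Pathway block read as inhibited ALP activity (4-methylumbelliferyl phosphate fluorescence); viability checked by CellTiter-Blue. IC50 values reported.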

[3] = Mus musculus, Shh Light II, hShh activation, read-out: Shh (IC50, inhibition of Hedgehog pathway activation)
[4] = Mus musculus, C3H 10T1/2, 10T1/2/Smo#3 cells, measured by ALP activity, read-out: ALP (IC50, inhibition of Hedgehog pathway activation)
[5] = Mus musculus, Shh Light II, SAG activation (500 nM SAG), read-out: Shh Light II luciferase activity (SAG activation)
[6] = Mus musculus, Shh Light II, hShh activation, read-out: Shh Light II luciferase activity (hShh activation)
[7] = Mus musculus, C3H 10T1/2, 10T1/2/Smo#3 cells, hShh activation, ALP activity, read-out: 10T1/2/Smo#3 ALP activity (hShh Activation)

| Structure (SMILES) | pIC50 [1, 3] | pIC50 [2, 4] | pIC50 [1, 5] | pIC50 [1, 6] | pIC50 [2, 7] | pIC50 ([1]; hShh activation, read-out: Shh (IC50, inhibition of Hedgehog pathway activation)) | pIC50 ([2]; 10T1/2/Smo#3 cells, measured by ALP activity, read-out: ALP (IC50, inhibition of Hedgehog pathway activation)) |
| --- | --- | --- | --- | --- | --- | --- | --- |
| CC(=O)NC1CCN(c2ccc3nc(-c4ccc(C)c(NC(=O)C(C)(C)C)c4)cn3n2)C1 (centres unmarked) [Example 362, N-(5-(6-(3-acetamidopyrrolidin-1-yl)imidazo[1,2-b]pyridazin-2-yl)-2-methylphenyl)pivalamide] | 6.98 | 6.81 |  |  |  |  |  |
| COc1ccc2nc(-c3ccc(C)c(NC(=O)Cc4ccc(Cl)cc4)c3)cn2n1 [Example 101, 2-(4-chlorophenyl)-N-(5-(6-methoxyimidazo[1,2-b]pyridazin-2-yl)-2-methylphenyl)acetamide] | 6.05 | 5.15 | 4.52 to 5.52 | 5.52 to 6.52 | 4.52 to 5.52 |  |  |
| Cc1ccccc1CN1CCN(c2ccc3nc(-c4ccccc4)c(C)n3n2)CC1 [Example 163, 3-methyl-6-(4-(2-methylbenzyl)piperazin-1-yl)-2-phenylimidazo[1,2-b]pyridazine] | 5.98 | 5.98 |  |  |  |  |  |
| Cc1c(Cl)nn2cc(-c3ccc(C(F)(F)F)c(NC(=O)C(C)(C)C)c3)nc2c1C [Example 198, N-(5-(6-chloro-7,8-dimethylimidazo[1,2-b]pyridazin-2-yl)-2-(trifluoromethyl)phenyl)pivalamide] | 5.78 | 5.71 | 4.52 to 5.52 | 5.52 to 6.52 | 5.52 to 6.52 |  |  |
| CCOC(=O)CCCCCCOc1ccc(-c2ccc3nc(-c4ccc(C)c(NC(=O)C(C)(C)C)c4)cn3n2)c(C(F)(F)F)c1 [Example 413, ethyl 7-(4-(2-(4-methyl-3-pivalamidophenyl)imidazo[1,2-b]pyridazin-6-yl)-3-(trifluoromethyl)phenoxy)heptanoate] | 6.50 | 6.26 |  |  |  |  |  |
| CSCCNc1ccc2nc(-c3ccc(C(F)(F)F)c(NC(=O)C(C)(C)C)c3)cn2n1 [Example 300, N-(5-(6-(2-(methylthio)ethylamino)imidazo[1,2-b]pyridazin-2-yl)-2-(trifluoromethyl)phenyl)pivalamide] | 6.27 | 6.15 | > 6.52 | 5.52 to 6.52 | 5.52 to 6.52 |  |  |
| Cc1c(-c2ccccc2)nc2ccc(N3CCN(Cc4cccc(C(F)(F)F)c4)CC3)nn12 [Example 165, 3-methyl-2-phenyl-6-(4-(3-(trifluoromethyl)benzyl)piperazin-1-yl)imidazo[1,2-b]pyridazine] | 6.05 | < 5.00 |  |  |  |  |  |
| C[C@@H]1CCCC[C@H]1Oc1ccc2nc(-c3ccc(C(F)(F)F)c(NC(=O)C(C)(C)C)c3)cn2n1 [Example 464, N-(5-(6-((1R,2R)-2-methylcyclohexyloxy)imidazo[1,2-b]pyridazin-2-yl)-2-(trifluoromethyl)phenyl)pivalamide] | 6.45 | 6.40 |  |  |  |  |  |
| CC(C)(C)C(=O)Nc1cc(-c2cn3cc(-c4cc(C(F)(F)F)ccc4F)ccc3n2)ccc1C(F)(F)F [Example 84, N-(5-(6-(2-fluoro-5-(trifluoromethyl)phenyl)imidazo[1,2-a]pyridin-2-yl)-2-(trifluoromethyl)phenyl)pivalamide] | 5.80 | 5.60 |  |  |  |  |  |
| CNC1CCN(c2ccc3nc(-c4ccc(C)c(NC(=O)C(C)(C)C)c4)cn3n2)C1 (centres unmarked) [Example 360, N-(2-methyl-5-(6-(3-(methylamino)pyrrolidin-1-yl)imidazo[1,2-b]pyridazin-2-yl)phenyl)pivalamide] |  |  |  |  |  | 7.59 | 7.49 |
| Cc1ccc(-c2cn3nc(N4CCS(=O)(=O)CC4)ccc3n2)cc1NC(=O)C(C)(C)C [Example 285, N-{5-[6-(1,1-dioxidothiomorpholin-4-yl)imidazo[1,2-b]pyridazin-2-yl]-2-methylphenyl}-2,2-dimethylpropanamide] | 6.10 | 6.00 |  |  |  |  |  |
| CC(C)(C)C(=O)Nc1cc(-c2cn3nc(N4CCC[C@@H](O)C4)ccc3n2)ccc1C(F)(F)F [Example 357, (R)-N-(5-(6-(3-hydroxypiperidin-1-yl)imidazo[1,2-b]pyridazin-2-yl)-2-(trifluoromethyl)phenyl)pivalamide] | 6.82 | 6.35 |  |  |  |  |  |
| CN(C)C1CCN(c2ccc3nc(-c4ccc(C(F)(F)F)c(NC(=O)C(C)(C)C)c4)cn3n2)C1 (centres unmarked) [Example 350, N-(5-(6-(3-(dimethylamino)pyrrolidin-1-yl)imidazo[1,2-b]pyridazin-2-yl)-2-(trifluoromethyl)phenyl)pivalamide] | 7.19 | 7.55 |  |  |  |  |  |
| CCN[C@H]1CCN(c2ccc3nc(-c4ccc(C)c(NC(=O)C(C)(C)C)c4)cn3n2)C1 [Example 394, (S)-N-(5-(6-(3-(ethylamino)pyrrolidin-1-yl)imidazo[1,2-b]pyridazin-2-yl)-2-methylphenyl)pivalamide] | 7.39 | 6.72 |  |  |  |  |  |

Second part, the molecule after the results:

| pIC50 [1, 3] | pIC50 [2, 4] | pIC50 [1, 5] | pIC50 [1, 6] | pIC50 [2, 7] | pIC50 ([1]; hShh activation, read-out: Shh (IC50, inhibition of Hedgehog pathway activation)) | pIC50 ([2]; 10T1/2/Smo#3 cells, measured by ALP activity, read-out: ALP (IC50, inhibition of Hedgehog pathway activation)) | Structure (SMILES) |
| --- | --- | --- | --- | --- | --- | --- | --- |
| 7.23 | 6.65 |  |  |  |  |  | CCc1ccc(-c2cn3nc(-c4cccnc4C(F)(F)F)ccc3n2)cc1NC(=O)C(C)(C)C(F)(F)F [Example 690, N-(2-ethyl-5-(6-(2-(trifluoromethyl)pyridin-3-yl)imidazo[1,2-b]pyridazin-2-yl)phenyl)-3,3,3-trifluoro-2,2-dimethylpropanamide] |
| 6.33 | 5.80 |  |  |  |  |  | CCc1ccc(-c2cn3nc(-c4cccnc4C(F)(F)F)ccc3n2)cc1NC(=O)C1CCCCC1 [Example 687, N-(2-ethyl-5-(6-(2-(trifluoromethyl)pyridin-3-yl)imidazo[1,2-b]pyridazin-2-yl)phenyl)cyclohexanecarboxamide] |
| 5.58 | < 5.00 |  |  |  |  |  | CCNS(=O)(=O)c1cc(-c2cn3nc(-c4cccnc4C(F)(F)F)ccc3n2)ccc1Cl [Example 701, 2-chloro-N-ethyl-5-(6-(2-(trifluoromethyl)pyridin-3-yl)imidazo[1,2-b]pyridazin-2-yl)benzenesulfonamide] |
| 6.58 | 6.39 | 5.52 to 6.52 | > 6.52 | 5.52 to 6.52 |  |  | CC(C)(C)C(=O)Nc1cc(-c2cn3nc(-c4cccnc4)ccc3n2)ccc1C(F)(F)F [Example 153, N-(5-(6-(pyridin-3-yl)imidazo[1,2-b]pyridazin-2-yl)-2-(trifluoromethyl)phenyl)pivalamide] |
| 7.24 | 7.54 | > 6.52 | > 6.52 | > 6.52 |  |  | Cc1ccc(-c2cn3nc(-c4cccnc4C(F)(F)F)ccc3n2)cc1NC(=O)C(C)(C)C [Example 284, N-(2-methyl-5-(6-(2-(trifluoromethyl)pyridin-3-yl)imidazo[1,2-b]pyridazin-2-yl)phenyl)pivalamide] |
| 6.61 | 5.97 |  |  |  |  |  | CC(C)Oc1ccc2nc(-c3ccc(C(F)(F)F)c(NC(=O)C(C)(C)C)c3)cn2n1 [Example 181, N-(5-(6-isopropoxyimidazo[1,2-b]pyridazin-2-yl)-2-(trifluoromethyl)phenyl)pivalamide] |
| 6.47 | 6.99 |  |  |  |  |  | Cc1ccc(-c2cn3nc(-c4cc(Cl)ccc4F)ccc3n2)cc1NC(=O)C(C)(C)C [Example 262, N-(5-(6-(5-chloro-2-fluorophenyl)imidazo[1,2-b]pyridazin-2-yl)-2-methylphenyl)pivalamide] |
| 6.99 | 6.24 |  |  |  |  |  | CCc1ccc(-c2cn3nc(-c4cccnc4C(F)(F)F)ccc3n2)cc1NC(=O)C1CCCC1 [Example 688, N-(2-ethyl-5-(6-(2-(trifluoromethyl)pyridin-3-yl)imidazo[1,2-b]pyridazin-2-yl)phenyl)cyclopentanecarboxamide] |
| 7.52 | 7.26 | > 6.52 | > 6.52 | > 6.52 |  |  | Cc1cc(Cl)c(-c2cn3nc(-c4cccnc4C(F)(F)F)ccc3n2)cc1NC(=O)C(C)(C)C [Example 639, N-(4-chloro-2-methyl-5-(6-(2-(trifluoromethyl)pyridin-3-yl)imidazo[1,2-b]pyridazin-2-yl)phenyl)pivalamide] |
| 5.93 | 5.59 |  |  |  |  |  | Cc1ccc(-c2cn3nc(-c4cccc(OCCCCCC(=O)NO)c4C(F)(F)F)ccc3n2)cc1NC(=O)C(C)(C)C [Example 438, N-hydroxy-6-(3-(2-(4-methyl-3-pivalamidophenyl)imidazo[1,2-b]pyridazin-6-yl)-2-(trifluoromethyl)phenoxy)hexanamide] |
| 7.11 | 6.13 |  |  |  |  |  | CCOC(=O)CCCOc1ccc(-c2ccc3nc(-c4ccc(C)c(NC(=O)C(C)(C)C)c4)cn3n2)c(C(F)(F)F)c1 [Example 428, ethyl 4-(4-(2-(4-methyl-3-pivalamidophenyl)imidazo[1,2-b]pyridazin-6-yl)-3-(trifluoromethyl)phenoxy)butanoate] |
